The results in this text go back to ChEMBL document CHEMBL1144371, “Design, synthesis, and biological evaluation of novel 4-hydroxypyrone derivatives as HIV-1 protease inhibitors” (Bioorg Med Chem Lett, 2005).

Some results are limits rather than exact numbers.

For assay [1], the system named is CCRF-CEM. The assay can be described thus: Effective concentration required to protect CEM cells from […] immunodeficiency virus (SIV) infection. The class given is functional, cell-based.
Assay [2] relates to CCRF-CEM. The assay can be described thus: Ratio of toxic concentration (TC50) to the effective concentration (EC50) (Therapeutic Index) in CEM cells. It counts as functional, Homo sapiens.
For assay [3], the target named is T1, Human immunodeficiency virus type 1 protease (Human immunodeficiency virus 1, UniProt Q72874). Briefly: Inhibitory concentration against human immunodeficiency virus 1 protease in MT-4 cells. The class given is cell-based, MT4.
The target of assay [4] is T1, Human immunodeficiency virus type 1 protease. The assay can be described thus: Effective concentration required to inhibit human immunodeficiency virus 1 protease in MT-4 cells. It counts as cell-based, MT4.

Turning to `CCCC1(CCc2ccccc2)CC(=O)C(Sc2cc(C)ccc2C)=C(O)O1` (stereo not drawn), the EC50 (in general, the midpoint of the concentration-response curve) with CCRF-CEM [1] is 4.3 µM. For the same molecule, the TI with CCRF-CEM [2] was more than 23.

For `CCC(c1ccccc1)c1c(O)c2ccccc2oc1=O` (stereo not drawn) [PHENPROCOUMON], it took 1 µM to reach half-maximal inhibition in assay [3] (IC50).

`CCCC1(CCc2ccccc2)CC(=O)C(Sc2ccccc2CC)=C(O)O1` (stereo not drawn) displayed an EC50 with CCRF-CEM [1] of 4.1 µM. For the same molecule, the TI in the assay with CCRF-CEM [2] is more than 24.

In the assay on CCRF-CEM [1], `Cc1ccccc1SC1=C(O)OC(COc2ccccc2)(c2ccccc2)CC1=O` (stereo not drawn) displayed an EC50 of 8.2 µM. Further, the TI with CCRF-CEM [2] is listed as more than 12.

In the case of `CCc1ccccc1SC1=C(O)OC(COc2ccccc2)(c2ccccc2)CC1=O` (stereo not drawn), in the assay on CCRF-CEM [1], a half-maximal response (EC50) required 5.6 µM. Besides, in the assay with CCRF-CEM [2], the TI is on record as 8.

`CC(C)(C)C1CCC2(CC1)CC(=O)C(Sc1ccccc1)=C(O)O2` (stereo not drawn) registered an EC50 with CCRF-CEM [1] of more than 5 µM. The TI with CCRF-CEM [2] stood at 1.

In the case of `Cc1ccc(C)c(SC2=C(O)OC3(CCCCC3)CC2=O)c1`, the EC50 in the assay on CCRF-CEM [1] amounted to 3.6 µM. Besides, the TI in the assay on CCRF-CEM [2] was more than 28.

With `CCCC1(Cc2cccc3ccccc23)CC(=O)C(Sc2ccccc2CC)=C(O)O1` (stereo not drawn), the EC50 (in the assay on CCRF-CEM [1]; in assay [4]) was 1.7 µM in each case. Further, the TI with CCRF-CEM [2] is reported as 46.

In the case of `Cc1ccc(C(C)(C)C)c(SC2=C(O)OC(CCc3ccccc3)(C(C)C)CC2=O)c1` (stereo not drawn), inhibition in assay [3] was half-maximal at 0.0011 µM (IC50). The molecule further displayed an EC50 in assay [4] of 15 µM.

`CCCC1(Cc2ccc3ccccc3c2)CC(=O)C(Sc2ccccc2CC)=C(O)O1` (stereo not drawn) came in with an EC50 in the assay with CCRF-CEM [1] of 1.8 µM. In the assay with CCRF-CEM [2], the TI is recorded as 34.

In the assay on CCRF-CEM [1], `CCCC1(Cc2cccc3ccccc23)CC(=O)C(Sc2ccccc2C)=C(O)O1` (stereo not drawn) displayed an EC50 of 3.8 µM. In addition, the TI with CCRF-CEM [2] was more than 26.

`CCCC1(Cc2ccc3ccccc3c2)CC(=O)C(Sc2cc(C)ccc2C)=C(O)O1` (stereo not drawn) gave an EC50 with CCRF-CEM [1] of 4 µM. For the same molecule, in the assay with CCRF-CEM [2], the TI worked out at 10.

For the molecule `CCc1ccccc1SC1=C(O)OC2(CCCCC2)CC1=O`, a half-maximal effect in the assay on CCRF-CEM [1] (EC50) was put at 3.9 µM. In addition, in the assay on CCRF-CEM [2], the TI is more than 26.

For `CCCC1(Cc2ccc3ccccc3c2)CC(=O)C(Sc2ccccc2C)=C(O)O1` (stereo not drawn), in the assay with CCRF-CEM [1], a half-maximal response (EC50) required 2 µM. The TI in the assay on CCRF-CEM [2] amounted to 17.

Molecule `CCCC1(CCc2ccccc2)CC(=O)C(Sc2ccccc2C)=C(O)O1` (stereo not drawn) had a half-maximal effective concentration (EC50) in the assay on CCRF-CEM [1] of 3.7 µM. For the same molecule, the TI in the assay with CCRF-CEM [2] is listed as more than 27.

Molecule `CCCC1(Cc2cccc3ccccc23)CC(=O)C(Sc2ccccc2)=C(O)O1` (stereo not drawn) had an EC50 in the assay on CCRF-CEM [1] of 4.3 µM. In addition, in the assay with CCRF-CEM [2], the TI is on record as 13.

`CCCC1(CCc2ccccc2)CC(=O)C(Sc2ccccc2)=C(O)O1` (stereo not drawn) showed an EC50 with CCRF-CEM [1] of 4.6 µM. In addition, in the assay with CCRF-CEM [2], the TI is listed as more than 22.

With `Cc1ccccc1SC1=C(O)OC2(CCCCC2)CC1=O`, the EC50 in the assay with CCRF-CEM [1] was determined as 3.3 µM. Moreover, the TI with CCRF-CEM [2] is more than 30.

On to `Cc1ccc(C)c(SC2=C(O)OC3(CCC(C(C)(C)C)CC3)CC2=O)c1` (stereo not drawn), for which the response with CCRF-CEM [1] was half-maximal at 8.3 µM (EC50). Moreover, the TI in the assay on CCRF-CEM [2] was more than 12.

In the assay with CCRF-CEM [1], `O=C1CC2(CCCCC2)OC(O)=C1Sc1ccccc1` displayed an EC50 of 12.3 µM. The TI in the assay with CCRF-CEM [2] was 4.

For the molecule `CCCC1(CCc2ccccc2)CC(=O)C(C(CC)c2ccccc2)=C(O)O1` (stereo not drawn), the IC50 (usually the concentration that gives 50% inhibition) in assay [3] was found to be 0.035 µM.

`Cc1ccccc1SC1=C(O)OC2(CCC(C(C)(C)C)CC2)CC1=O` (stereo not drawn) displayed an EC50 with CCRF-CEM [1] of 6.7 µM. Also, in the assay with CCRF-CEM [2], the TI was determined as 8.

`O=C1CC(COc2ccccc2)(c2ccccc2)OC(O)=C1Sc1ccccc1` (stereo not drawn) came in with a half-maximal effective concentration (EC50) in the assay with CCRF-CEM [1] of 13 µM. The TI in the assay with CCRF-CEM [2] is 2.

In the assay on CCRF-CEM [1], `CCc1ccccc1SC1=C(O)OC2(CCC(C(C)(C)C)CC2)CC1=O` (stereo not drawn) displayed an EC50 of 8.1 µM. For the same molecule, the TI with CCRF-CEM [2] came out at 3.

In the assay with CCRF-CEM [1], `Cc1ccc(C)c(SC2=C(O)OC(COc3ccccc3)(c3ccccc3)CC2=O)c1` (stereo not drawn) showed an EC50 of 9.2 µM. Further, the TI with CCRF-CEM [2] is listed as 5.

For the molecule `CCCC1(Cc2cccc3ccccc23)CC(=O)C(Sc2cc(C)ccc2C)=C(O)O1` (stereo not drawn), it took 4.6 µM to reach a half-maximal effect with CCRF-CEM [1] (EC50). The TI in the assay on CCRF-CEM [2] amounted to 11.

In the case of `CCCC1(Cc2ccc3ccccc3c2)CC(=O)C(Sc2ccccc2)=C(O)O1` (stereo not drawn), a half-maximal effect with CCRF-CEM [1] (EC50) was put at 3.2 µM. Besides, the TI in the assay on CCRF-CEM [2] was 10.
